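Step 1: Grow cells in 96-well plates. Step 2: Expose to compound for 48 hours at 5 concentrations. Step 3: Interpolate endpoints linearly; if unreached, use highest concentration. Here, GI50 denotes the concentration required for 50% inhibition of growth. Definition used: TGI = concentration required for complete inhibition of growth.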 Where a SMILES comes first, the peptide text is derived from it. The star is where a group is joined. Boc = CC(C)(C)OC(=O)*
Legend:
Assay in all cases: NCI anticancer screen, dose series, 48 h
HOP-92 NSCLC = system: HOP-92 NSCLC
COLO 205 colon = system: COLO 205 colon
NCI/ADR-RES ovarian = system: NCI/ADR-RES ovarian
NCI-H226 lung = system: NCI-H226 lung
A549 NSCLC = system: A549 NSCLC
NCI-H23 lung = system: NCI-H23 lung
T-47D breast = system: T-47D breast
A498 renal = system: A498 renal
HCT-116 colon = system: HCT-116 colon
NCI-H522 lung = system: NCI-H522 lung
MALME-3M melanoma = system: MALME-3M melanoma
MDA-N = system: MDA-N

| SMILES | TGI (HOP-92 NSCLC) | TGI (COLO 205 colon) | TGI (NCI/ADR-RES ovarian) | TGI (NCI-H226 lung) | TGI (A549 NSCLC) | TGI (NCI-H23 lung) | TGI (T-47D breast) | TGI (A498 renal) | TGI (HCT-116 colon) | TGI (NCI-H522 lung) | TGI (MALME-3M melanoma) | TGI (MDA-N) | GI50 (NCI-H522 lung) | GI50 (HOP-92 NSCLC) | GI50 (COLO 205 colon) | GI50 (NCI/ADR-RES ovarian) | GI50 (NCI-H226 lung) | GI50 (A549 NSCLC) | GI50 (NCI-H23 lung) | GI50 (A498 renal) |
| --- | --- | --- | --- | --- | --- | --- | --- | --- | --- | --- | --- | --- | --- | --- | --- | --- | --- | --- | --- | --- |
| O=C1CC(c2ccccc2)n2cccc21 (stereo not given) | > 100 µM | > 100 µM | > 100 µM | > 100 µM | > 100 µM | > 100 µM | > 100 µM | > 100 µM | > 100 µM | > 100 µM |  |  |  |  |  |  |  |  |  |  |
| CCN1CCC(O)(c2ccc(Cl)cc2)C(C(=O)c2ccc(Cl)cc2)C1 (stereo not given) | > 100 µM | > 100 µM |  |  | > 100 µM | > 100 µM |  | > 100 µM | > 100 µM | 41.9 µM |  |  |  |  |  |  |  |  |  |  |
| O=C1c2ccc(O)c(O)c2C(=O)c2c(O)ccc(O)c21 | 57.7 µM | 48.5 µM |  | 50.5 µM | 50.3 µM | 93.8 µM |  | 53.8 µM | 45.2 µM | 3.03 µM |  |  |  |  |  |  |  |  |  |  |
| C=C1CCC([N+](=O)[O-])[C@](C)(N=O)CC[C@@H]2C1CC2(C)C (stereo not given in full) | 44.9 µM | 60.5 µM | 82 µM | 30.9 µM | 36 µM | 33.3 µM |  |  | 32.1 µM | 49.1 µM | 49.5 µM | > 100 µM |  |  |  |  |  |  |  |  |
| COc1ccc(SCc2cc(OCc3ccccc3)c(OCc3ccccc3)c(OCc3ccccc3)c2)cc1 | 3.08 µM | 8.21 µM | 3.38 µM | 3.73 µM | 3.71 µM | 3.35 µM |  | 3.49 µM | 3.14 µM | 3.37 µM | 3.37 µM | 3.29 µM |  |  |  |  |  |  |  |  |
| COc1cc(Cc2nccc3cc(OC)c(OC)cc23)c(N=NN(C)C)cc1OC |  | 33.8 µM | 96.7 µM | 60 µM | 77.2 µM | 48.7 µM | 25.4 µM |  | 17.7 µM |  | 38.4 µM | 46.1 µM |  |  |  |  |  |  |  |  |
| Nc1nc2c3nc(Nc4ccccc4)sc3nc(=O)n2c2sc(Nc3ccccc3)nc12 | > 100 µM | > 100 µM |  | > 100 µM | > 100 µM | > 100 µM |  | > 100 µM | > 100 µM | > 100 µM | > 100 µM |  |  |  |  |  |  |  |  |  |
| O=C(NNC(=S)NC1CCCCC1)c1csc(NC(=S)NC2CCCCC2)n1 |  | 14.1 µM | 13.3 µM | > 100 µM | 23.3 µM | 45.2 µM | 74.6 µM | 36.3 µM | 16.5 µM | 28.2 µM | 26 µM |  |  |  |  |  |  |  |  |  |
| O=C(O)CN1C(=O)C(Cc2ccc(O)cc2)N=C(c2cccc(O)c2)c2ccccc21 (stereo not given) | > 100 µM |  |  | > 100 µM | > 100 µM |  | > 100 µM | 25.3 µM | > 100 µM | > 100 µM | > 100 µM | 26 µM |  |  |  |  |  |  |  |  |
| CCN(CC)C(=O)C(C)n1cc(C)c(=O)[nH]c1=O (stereo not given) |  | > 100 µM |  |  | > 100 µM | > 100 µM |  |  | > 100 µM | > 100 µM | > 100 µM |  |  |  |  |  |  |  |  |  |
| C=CCc1cccc2cc(C(=O)Nc3ccccn3)c(=N)oc12 | > 100 µM | > 100 µM | > 100 µM | > 100 µM | > 100 µM | > 100 µM | > 100 µM | > 100 µM | > 100 µM |  |  |  |  |  |  |  |  |  |  |  |
| CCCC(=O)OC1C(CO)OC(n2cc(F)c(=O)[nH]c2=O)C1F (stereo not given) | > 100 µM | > 100 µM | > 100 µM | > 100 µM | > 100 µM | > 100 µM | > 100 µM | > 100 µM | > 100 µM | > 100 µM | > 100 µM |  |  |  |  |  |  |  |  |  |
| CC1(C)CCC[C@]2(C)[C@H]3[C@H](C#N)c4cc(O)c(O)cc4O[C@@]3(C)CC[C@@H]12 | > 10 µM | > 10 µM | > 10 µM | > 10 µM |  | > 10 µM |  | > 10 µM |  | > 10 µM |  | > 10 µM |  |  |  |  |  |  |  |  |
| C=C1C2C[C@@H]3O[C@H]4C[C@H]5O[C@@]6(C[C@@H]7O[C@]8(C[C@H](C)[C@@H]9O[C@@H]%10CC(CO)O[C@@H]%10C[C@@H]9O8)C[C@H](C)[C@@H]7O6)C[C@H]5O[C@H]4[C@H](C)[C@H]3OC(=O)C[C@H]3CC[C@@H]4OC5[C@H]6O[C@]7(CC[C@H]8CC(=C)[C@H](CC[C@@H](C[C@H]1C)O2)O8)CC6O[C@@H]5[C@@H](O7)[C@H]4O3 (stereo not given in full) | > 1 µM | 0.000322 µM | > 1 µM | 0.00022 µM | 0.408 µM | 0.00124 µM |  | > 1 µM |  | < 0.0001 µM | > 1 µM |  |  |  |  |  |  |  |  |  |
| Cc1ccccc1S(=O)(=O)Nn1cnc2ccc(S(=O)(=O)Nc3ccc(Cl)cc3)cc2c1=O | > 100 µM | > 100 µM | > 100 µM | > 100 µM | > 100 µM | > 100 µM |  |  | > 100 µM | > 100 µM | > 100 µM | > 100 µM |  |  |  |  |  |  |  |  |
| COc1ccc(-c2cc3[nH]nc(N)c3c(=O)o2)cc1 | > 100 µM | > 100 µM |  |  | > 100 µM | > 100 µM |  | > 100 µM | > 100 µM |  | > 100 µM |  |  |  |  |  |  |  |  |  |
| N#Cc1ccc(-n2c3ccccc3c3ccc4c(c32)C(=O)C=CC4=O)cc1 |  | 10.5 µM | 53.9 µM | > 74.5 µM | 38.4 µM | 24.4 µM | > 100 µM | 11 µM | 7.19 µM | 1.19 µM |  | 13.1 µM |  |  |  |  |  |  |  |  |
| COC(=O)c1c2cccccc-2c(Cc2c3cccccc-3c(C(=O)OC)c2O)c1O | > 100 µM | > 100 µM |  | > 100 µM | > 100 µM | > 100 µM |  | > 100 µM | > 100 µM | > 100 µM | > 100 µM |  |  |  |  |  |  |  |  |  |
| COC(=O)C(Cc1c[nH]c2ccccc12)NC(=O)C(Cc1c[nH]c2ccccc12)NC(=O)C(Cc1c[nH]c2ccccc12)NC(=O)C(Cc1c[nH]c2ccccc12)NC(=O)C(Cc1c[nH]c2ccccc12)NC(=O)C(Cc1c[nH]c2ccccc12)NC(=O)C(Cc1c[nH]c2ccccc12)NC(=O)C(Cc1c[nH]c2ccccc12)NC(=O)OC(C)(C)C (stereo not given) (Boc-WWWWWWWW-OMe; configuration not given here) |  |  |  | > 100 µM | > 100 µM | > 100 µM |  | 55.6 µM | > 100 µM | 60.3 µM | > 100 µM | > 100 µM |  |  |  |  |  |  |  |  |
| Cc1cc(S(=O)(=O)Nc2nc3ccccc3c(=O)n2N)c(S)cc1Cl |  | > 100 µM | 83.4 µM | 67.1 µM | > 100 µM | > 100 µM |  |  | > 100 µM | 50.7 µM | 56.9 µM | > 100 µM | 19 µM |  |  |  |  |  |  |  |
| CC(=O)O[C@H]1C(=O)[C@@]2(C)C(C(OC(=O)c3ccccc3)C3[C@@H](O)C(OC(=O)[C@@H](O)[C@H](NC(=O)c4ccccc4)c4ccc(C(F)(F)F)cc4)C(C)=C1C3(C)C)[C@]1(OC(C)=O)CO[C@@H]1C[C@@H]2O (stereo not given in full) |  | > 25 µM |  | > 25 µM | > 25 µM | > 25 µM |  |  | > 25 µM | 21.1 µM | > 25 µM |  |  |  |  |  |  |  |  |  |
| Oc1ccc2c(c1)-c1c(c3ccccc3n1CCN1CCOCC1)CC2 |  | > 100 µM | 95.3 µM | 81.2 µM |  | 69.1 µM | > 100 µM | > 100 µM | > 100 µM |  | > 100 µM | > 100 µM |  |  |  |  |  |  |  |  |
| COc1cc(/C=c2\sc3n(c2=O)C(c2ccc(Cl)cc2)C2=C(CCCC2C)N=3)cc(OC)c1OC (stereo not given) | > 100 µM |  |  |  | > 100 µM |  |  | > 100 µM | > 100 µM |  |  | > 100 µM |  |  |  |  |  |  |  |  |
| CN(C)c1nc(Cl)c2c(-c3ccccc3)c(-c3ccccc3)oc2n1 | > 100 µM | > 100 µM | > 100 µM | > 100 µM | > 100 µM | > 100 µM | > 100 µM | > 100 µM | > 100 µM | 78.7 µM |  |  |  |  |  |  |  |  |  |  |
| Cn1c2ccccc2c(=O)c2cccc(C(=O)NC(CCC(N)=O)C(=O)O)c21 (stereo not given) |  | > 100 µM | > 100 µM | > 100 µM | > 100 µM | > 100 µM | > 100 µM | > 100 µM | > 100 µM |  | > 100 µM | > 100 µM |  |  |  |  |  |  |  |  |
| CO/N=C(\C)CCC#Cc1ccccc1C(=O)OC |  | > 10 µM | > 10 µM | > 10 µM | > 10 µM | > 10 µM | > 10 µM | > 10 µM | > 10 µM |  | > 10 µM | > 10 µM |  |  |  |  |  |  |  |  |
| COc1ccccc1C(=O)c1c(NCc2ccccc2)c(=O)c1=O | > 100 µM | 98.7 µM | > 100 µM | > 100 µM |  | > 100 µM |  | > 100 µM | > 100 µM | 31.8 µM | 75.9 µM | > 100 µM |  |  |  |  |  |  |  |  |
| COc1cc2c(cc1OCCCC(=O)Nc1ccc3ccc4cccc5ccc1c3c45)N=C[C@@H]1CCCN1C2=O | 1.07 µM | 4.77 µM | 0.262 µM | < 0.0243 µM |  | < 0.01 µM |  | < 0.0509 µM |  |  |  |  | < 0.0133 µM | 0.147 µM | 2.03 µM | 0.0543 µM | < 0.0109 µM | < 0.021 µM | < 0.01 µM | < 0.0243 µM |
| Cc1nc2c(=O)n(C)ncc2[nH]1 |  | > 100 µM | > 100 µM | > 100 µM | > 100 µM | > 100 µM | > 100 µM | > 100 µM | > 100 µM |  |  | > 100 µM |  |  |  |  |  |  |  |  |
| COI1NC(=O)c2ccccc21 | > 100 µM | > 100 µM | > 100 µM | > 100 µM | > 100 µM | > 100 µM |  | > 100 µM | > 100 µM | > 100 µM | > 100 µM | > 100 µM |  |  |  |  |  |  |  |  |
